# Experimental data taken from patent publication US20030055004A1, “GPE analogs and peptidominetics” (priority 2001, published 2003).
# Test system: cortical cultures
# Assay: Neuroprotection in cortical cultures after toxin (okadaic acid), MTT survival assay
# Format: cell-based, rat
# Details: higher concentrations of GPE, FIG. 12, 24 hrs incubation, 8DIV
# Protocol: One cortical hemisphere from a postnatal day 1 rat was used and collected into 4 ml of DMEM. Trituration was done with a 5 ml glass pipette and subsequently through an 18 gauge needle. Afterwards, the cell suspension was sieved through a 100 μm cell strainer and washed in 50 ml DMEM (centrifugation for 5 min at 250 g). […] After cells reached confluence, they were washed three times with PBS and adjusted to Neurobasal/B27 and incubated for another 3 days. This supernatant was frozen for transient storage until usage at −80° C. A dam was sacrificed by CO2-treatment in a chamber for up to 4 minutes and was prepared then for cesarean section. After surgery, the embryos were removed from their amniotic sacs, decapitated and the heads put on ice in DMEM/F12 medium for striatum and PBS+0.65% D(+)-glucose for cortex. The two cortical hemispheres were carefully removed by a spatula from the whole brain with the ventral side facing upside into a PBS +0.65% D(+)-glucose containing petri dish. […] Cells were counted and adjusted to 50,000 cells per 60 μl. […] The survival rate was determined by a colorimetric end-point MTT-assay at 595 nm in a multi-well plate reader. For the cerebellar microexplants four windows (field of 0.65 mm^2) with highest cell density were chosen and cells displaying neurite outgrowth were counted.
smiles,measurement,value
"NCC(=O)N1CCC[C@H]1C(=O)N[C@@H](CCC(=O)O)C(=O)O [GPE, glycyl-L-prolyl-L-glutamic acid]",neuroprotection,64%
